What all share (assay type): cell-based
Test [1] deals with H520. Put plainly: Cell growth inhibition (CellTiter-Glo), NSCLC line H520. As to conditions: H520 non-small cell lung cancer cell line, 4 days. As for the experimental part:
(§1) Cell growth inhibitory activity of representative BET bromodomain degraders in representative non-small cell lung cancer cell lines was determined using the CellTiter-Glo® Luminescent Cell Viability Assay. Cells were seeded in 384-well white opaque cell culture plates at a density of 2,000 cells/well with serially diluted compounds and incubated at 37° C. in an atmosphere of 95% air and 5% CO2 for 4 days. Cell viability was determined using the CellTiter-Glo® Luminescent Cell Viability Assay Kit (Promega, Madison, Wis.) according to the manufacture's instruction. Briefly, a volume of CellTiter-Glo® Reagent equal to the volume of cell culture medium was added to each well, and then the plates were incubated at room temperature for 10-20 minutes. The luminescent signal was measured using a Tecan Infinite M1000 multimode microplate reader (Tecan, Morrisville, N.C.). The half maximal inhibitory concentration (IC50) was calculated using the GraphPad Prism 5 software (GraphPad Software, La Jolla, Calif.). Cpd. A is a BET bromodomain inhibitor, see U.S. Appl.
For orientation: ATP-based viability assays read luminescence as a measure of living cells.

Test [2] has as its system H2170. Kind of test: Cell growth inhibition (CellTiter-Glo), NSCLC line H2170. The following applies: H2170 non-small cell lung cancer cell line, 4 days. As for the experimental part: as §1
Test [3] relates to H1437. Put plainly: Cell growth inhibition (CellTiter-Glo), NSCLC line H1437. The following applies: H1437 non-small cell lung cancer cell line, 4 days. How it is done: as §1
Test [4] relates to MDA-MB-468. Kind of test: Cell growth inhibition (CellTiter-Glo), breast cancer line MDA-MB-468. As to conditions: MDA-MB-468 breast cancer cell line, 4 days. How it is done:
(§2) Cell growth inhibitory activity of representative BET bromodomain degraders in representative breast cancer cell lines was determined using the CellTiter-Glo® Luminescent Cell Viability Assay. SUM-52 and SUM-159 cell lines were established at the University of Michigan Comprehensive Cancer Center. All the other breast cancer cell lines were obtained from the ATCC (Manassas, Va.). Cells were seeded in 384-well cell culture plates at a density of 1,000-2,500 cells/well with serially diluted compounds and incubated at 37° C. in an atmosphere of 95% air and 5% CO2 for 4 days. Cell viability was determined using the CellTiter-Glo® Luminescent Cell Viability Assay Kit (Promega, Madison, Wis.) according to the manufacture's instruction. Briefly, a volume of CellTiter-Glo® Reagent equal to the volume of cell culture medium was added to each well, and then the plates were incubated at room temperature for 20-60 minutes. The luminescent signal was measured using a Tecan Infinite M1000 multimode microplate reader (Tecan, Morrisville, N.C.). The half maximal inhibitory concentration (IC50) was calculated using the GraphPad Prism 5 software (GraphPad Software, La Jolla, Calif.). “Thd” is thalidomide.

The subject of test [5] is MDA-MB-453. Put plainly: Cell growth inhibition (CellTiter-Glo), breast cancer line MDA-MB-453. As to conditions: MDA-MB-453 breast cancer cell line, 4 days. As for the experimental part:
as §2

Test [6] has as its system HCC1954. Put plainly: Cell growth inhibition (CellTiter-Glo), breast cancer line HCC1954. The following applies: 4 days. How it is done:
as §2

Test [7] has as its system SKCO-1. Put plainly: Cell growth inhibition (CellTiter-Glo), colon cancer line SKCO-1. The following applies: SKCO-1 colon cancer cell line. How it is done:
as §1, with “Appl. No. 62/121,637, having the following structure:” for “Appl.”
(§3) Cell growth inhibitory activity of representative BET bromodomain degraders in representative colon cancer cell lines, see Table 7, was determined as described in Example 17.

Test [8] relates to SW837. Kind of test: Cell growth inhibition (CellTiter-Glo), colon cancer line SW837. How it is done:
as §1, with “Appl. No. 62/121,637, having the following structure:” for “Appl.”
as §3

Test [9] concerns T84. Put plainly: Cell growth inhibition (CellTiter-Glo), colon cancer line T84. How it is done:
as §1, with “Appl. No. 62/121,637, having the following structure:” for “Appl.”
as §3

In test [10] the test system is LS411N. Kind of test: Cell growth inhibition (CellTiter-Glo), colon cancer line LS411N. How it is done: as §1, with “Appl. No. 62/121,637, having the following structure:” for “Appl.”
as §3

Test [11] concerns MOLM-13. Kind of test: Cell growth inhibition (CellTiter-Glo), leukemia line MOLM-13. As to conditions: MOLM-13 leukemia cell line. As for the experimental part: as §1, with “Appl. No. 62/121,637, having the following structure: Cell growth inhibitory activity of representative BET bromodomain degraders in representative leukemia cell lines, see Table 8, was determined as described in Example 17.” for “Appl.”

Read-outs that look alike come from different tables or passages of the source.

By IC50 is commonly meant the concentration needed to halve the response being measured.

Regarding `CCn1nc(C2CC2)cc1Nc1nc(COC)nc2[nH]c3cc(-c4c(C)noc4C)c(OC)cc3c12` [Cpd. A, reference compound], the IC50 in [1] (Homo sapiens, NCI-H520, 96 h) was determined as 0.28 µM; in [2] (Homo sapiens, NCI-H2170, 96 h), 0.02 µM; in [3] (Homo sapiens, NCI-H1437, 96 h), 0.14 µM; in test [4] (Homo sapiens, 96 h), 0.51 µM; in test [5] (Homo sapiens, 96 h), 0.04 µM; in [6] (Homo sapiens, 96 h), 1.62 µM. Also, the IC50 in test [7] (Homo sapiens, SK-CO-1) is 1.08 ± 0.24 µM; in [8] (Homo sapiens), 0.084 ± 0.02 µM; in test [9] (Homo sapiens), 0.413 ± 0.1 µM; in [10] (Homo sapiens, LS-411N), 0.11 ± 0.09 µM.
Regarding `CCn1nc(C2CC2)cc1Nc1nc(C(=O)NCCCOCCOCCOCCCNc2cccc3c2C(=O)N(C2CCC(=O)NC2=O)C3=O)nc2[nH]c3cc(-c4c(C)noc4C)c(OC)cc3c12` (stereo not drawn) [Cpd. No. 4], the IC50 in test [1] (Homo sapiens, NCI-H520, 96 h) amounted to 0.003 µM; in test [2] (Homo sapiens, NCI-H2170, 96 h), 0.099 µM; in [3] (Homo sapiens, NCI-H1437, 96 h), 0.329 µM; in test [4] (Homo sapiens, 96 h), 0.002 µM; in [5] (Homo sapiens, 96 h) it was 0.002 µM; in [6] (Homo sapiens, 96 h) it was 0.004 µM. Also, the IC50 in [7] (Homo sapiens, SK-CO-1) was 0.008 ± 0.004 µM; in test [8] (Homo sapiens), 0.076 ± 0.03 µM; in test [9] (Homo sapiens), 0.11 ± 0.03 µM; in test [10] (Homo sapiens, LS-411N) it was 0.1 ± 0.06 µM; in [11] (Homo sapiens), 1 µM.
As for `CCn1nc(C2CC2)cc1Nc1nc(C(=O)NCCCCNc2cccc3c2C(=O)N(C2CCC(=O)NC2=O)C3=O)nc2[nH]c3cc(-c4c(C)noc4C)c(OC)cc3c12` (stereo not drawn) [Cpd. No. 9], the IC50 in test [1] (Homo sapiens, NCI-H520, 96 h) was found to be 0.011 µM; in test [2] (Homo sapiens, NCI-H2170, 96 h) it was 0.195 µM; in test [3] (Homo sapiens, NCI-H1437, 96 h) it was 0.818 µM; in test [7] (Homo sapiens, SK-CO-1), 0.023 ± 0.01 µM; in test [8] (Homo sapiens) it was 0.23 ± 0.067 µM; in test [9] (Homo sapiens), 0.69 ± 0.3 µM. The compound further displayed an IC50 in [10] (Homo sapiens, LS-411N) of 0.56 ± 0.38 µM.
Take `Cc1sc2c(c1C)C(c1ccc(Cl)cc1)=N[C@@H](CC(=O)NCCCCNC(=O)COc1cccc3c1C(=O)N(C1CCC(=O)NC1=O)C3=O)c1nnc(C)n1-2` (stereo partly drawn) [dBET1, reference compound]: the IC50 in test [1] was 4.2 µM; in test [2], greater than 5 µM; in test [3], greater than 5 µM; in test [4], 1.39 µM; in test [5], greater than 5 µM; in [6] it was 3.76 µM. For the same compound, the IC50 was greater than 5 µM in test [7]; greater than 5 µM in test [8]; greater than 5 µM in [9]; greater than 5 µM in test [10]; 106 µM in [11].

The values are drawn from patent US10633386B2, “BET protein degraders” (THE REGENTS OF THE UNIVERSITY OF MICHIGAN, priority 2016, dated 2020).
